Source: patent EP4644383A1 (Jiangsu Yahong Meditech Co., Ltd., priority 2022, dated 2024)
Read-outs that look alike come from different tables or passages of the source.

System: Ba/F3-FGFR3-BAIAP2L1 cells
Assay: Inhibition of proliferation activity of Ba/F3-FGFR3-BAIAP2L1 cells (CellTiter-Glo)
Assay type: cell-based
Conditions: for IC50: read-out: IC50 (nM) Ba/F3-FGFR3-BAIAP2L1; for Selectivity (X) FGFR1/FGFR3: ratio of IC50 Ba/F3-BCR-FGFR1 to IC50 Ba/F3-FGFR3-BAIAP2L1
Protocol: The present experiment used CellTiter-Glo® Luminescent Cell Viability Assay (Promega: G7573) kit, which was a homogeneous cell viability detection method and determined the cell viability of cultured cells by quantifying ATP. • ① Ba/F3-BCR-FGFR1 or Ba/F3-FGFR3-BAIAP2L1 cells were cultured in 1640 complete medium (Gibco: 11879020) (10% FBS (Gibco: 10091-148)+1% Pen Strep (Gibco: 15140122)) under the condition of 37°C and 5% CO2. • (2) The cells in logarithmic growth phase were harvested and counted using a […]. The trypan blue exclusion method was used to detect cell viability to ensure the cell viability was above 90%. • ③ The cell density was adjusted using 1640 complete medium, and then, the cells were seeded into a 96-well cell culture plate at 90 µL/well with a total of 2000 cells. • ④ A 10-fold drug solution was prepared starting from a maximum drug concentration of 10 µM and 4-fold serially diluted into10 concentrations. […] The luminescence values were read to collect the data. • ⑩ The data were analyzed using XLFit excel plugin version 5.5.0.5, and fitted with non-linear S-curve regression to obtain the dose-response curves and thus calculate the IC50 values. Y = Bottom + (Top-Bottom)/((1+(IC50/X))^(∧) HillSlope [formula]
"Top" refers to the maximum response, "Bottom" refers to the minimum response, and "HillSlope" refers to the slope of the curve.
"Max" represents the average value of the cell control+DMSO, and "Min" represents the average value of the medium control+DMSO.

[1] = Ba/F3-FGFR3-BAIAP2L1 cells, 72 hours, CTG

Compound | IC50 [1] | IC50 (72 h) | Selectivity (X) FGFR1/FGFR3
C[C@@H](Oc1ccc2[nH]nc(-c3ccc(S(C)(=N)=O)nc3)c2c1)c1c(Cl)cncc1Cl (stereo partly drawn) [Comparative Example 85, (5-(5-((R)-1-(3,5-dichloropyridin-4-yl)ethoxy)-1H-indazol-3-yl)pyridin-2-yl)(imino)(methyl)-sulfanone, reference compound] | – | 5.4 nM | –
C[C@@H](Oc1cc(F)c2[nH]nc(-c3cnn(CCN4CCOCC4)c3)c2c1)c1c(Cl)cncc1Cl [Example 12, (R)-4-(2-(4-(5-(1-(3,5-dichloropyridin-4-yl)ethoxy)-7-fluoro-1H-indazol-3-yl)-1H-pyrazol-1-yl)ethyl)morph oline] | 4.6 nM | – | 129 X
C[C@@H](Oc1ccc2[nH]nc(-c3cnn(C)c3)c2n1)c1c(Cl)cncc1Cl [Example 29, (R)-5-(1-(3,5-dichloropyridin-4-yl)ethoxy)-3-(1-methyl-1H-pyrazol-4-yl)-1H-pyrazolo[4,3-b]pyridine] | 0.3 nM | – | 127 X
C[C@@H](Oc1ccc2[nH]nc(-c3cnn(CCN4CCN(C)C(=O)C4)c3)c2n1)c1c(Cl)cncc1Cl [Example 54, (R)-4-(2-(4-(5-(1-(3,5-dichloropyridin-4-yl)ethoxy)-1H-pyrazolo[4,3-b]pyridin-3-yl)-1H-pyrazol-1-yl)ethyl)-1-methylpiperazin-2-one] | 1.2 nM | – | 147 X
C[C@@H](Oc1ccc2[nH]nc(-c3cnn(CCN4CCS(=O)(=O)CC4)c3)c2n1)c1c(Cl)cncc1Cl [Example 55, (R)-4-(2-(4-(5-(1-(3,5-dichloropyridin-4-yl)ethoxy)-1H-pyrazolo[4,3-b]pyridin-3-yl)-1H-pyrazol-1-yl)ethyl)thiomorph oline 1,1-dioxide] | 0.7 nM | – | 126 X
Cc1ccc2ncccc2c1C(C)Oc1ccc2[nH]nc(-c3cnn(C)c3)c2c1 (stereo not drawn) [Example 95, 6-methyl-5-(1-((3-(1-methyl-1H-pyrazol-4-yl)-1H-indazol-5-yl)oxy)ethyl)quinolinee] | 8 nM | – | 51 X
COCC(=O)N1CC(n2cc(-c3n[nH]c4ccc(OC(C)c5cccc6nccnc56)cc34)cn2)C1 (stereo not drawn) [Example 188, 2-methoxy-1-(3-(4-(5-(1-(quinoxalin-5-yl)ethoxy)-1H-indazol-3-yl)-1H-pyrazol-1-yl)azetidin-1-yl)ethan-1-one] | 3.1 nM | – | 91 X
CC(Oc1ccc2[nH]nc(-c3cnn(C4CN(C(=O)C(C)(C)O)C4)c3)c2c1)c1cccc2nccnc12 (stereo not drawn) [Example 190, 2-hydroxy-2-methyl-1-(3-(4-(5-(1-(quinoxalin-5-yl)ethoxy)-1H-indazol-3-yl)-1H-pyrazol-1-yl)azetidin-1-yl)propan-1-one] | 3.8 nM | – | 113 X
CC(=O)N1CC(n2cc(-c3n[nH]c4ccc(OC(C)c5cccc6nccnc56)cc34)cn2)C1 (stereo not drawn) [Example 218, 1-(3-(4-(5-(1-(quinoxalin-5-yl)ethoxy)-1H-indazol-3-yl)-1H-pyrazol-1-yl)azetidin-1-yl)ethan-1-one] | 8.4 nM | – | 53 X
CC(Oc1cc2c(-c3cnn(C)c3)n[nH]c2cc1F)c1cc(Cl)cc2nccnc12 (stereo not drawn) [Example 227, 7-chloro-5-(1-((6-fluoro-3-(1-methyl-1H-pyrazol-4-yl)-1H-indazol-5-yl)oxy)ethyl)qu inoxaline] | 3.1 nM | – | 126 X
CC(Oc1ccc2[nH]nc(-c3cnn(C)c3)c2c1)c1nc(C(F)F)cc2nccnc12 (stereo not drawn) [Example 236, 7-(difluoromethyl)-5-(1-((3-(1-methyl-1H-pyrazol-4-yl)-1H-indazol-5-yl)oxy)ethyl)pyridino[3,4-b]pyrazine] | 0.9 nM | – | 182 X
[2H]C([2H])([2H])c1cc2nccnc2c(C(C)Oc2ccc3[nH]nc(-c4cnn(C)c4)c3c2)n1 (stereo not drawn) [Example 241] | 0.8 nM | – | 76 X

Further lines, with some results ahead:

IC50 [1] | Compound | IC50 (72 h) | Selectivity (X) FGFR1/FGFR3
19 nM | CC(Oc1ccc2[nH]nc(-c3cnn(C)c3)c2c1)c1cccc2ncccc12 (stereo not drawn) [Example 88, 5-(1-((3-(1-methyl-1H-pyrazol-4-yl)-1H-indazol-5-yl)oxy)ethyl)quin oline] | – | 180 X
2.8 nM | CC(Oc1ccc2[nH]nc(-c3cnn(C)c3)c2c1)c1cccc2nccnc12 (stereo not drawn) [Example 92, 5-(1-((3-(1-methyl-1H-pyrazol-4-yl)-1H-indazol-5-yl)oxy)ethyl)quin oxaline] | – | 35 X
10.6 nM | CC(Oc1ccc2[nH]nc(-c3cnn(C)c3)c2c1)c1cccn2ncnc12 (stereo not drawn) [Example 101, 8-(1-((3-(1-methyl-1H-pyrazol-4-yl)-1H-indazol-5-yl)oxy)ethyl)-[1,2,4]triazolo[1,5-a]pyridine] | – | 23 X
4.8 nM | CC(Oc1ccc2[nH]nc(-c3cnn(C)c3)c2c1)c1c(C(F)F)ccc2ncccc12 (stereo not drawn) [Example 127, 6-(difluoromethyl)-5-(1-((3-(1-methyl-1H-pyrazol-4-yl)-1H-indazol-5-yl)oxy)ethyl)quinoline] | – | 195 X
12.9 nM | CC(Oc1ccc2[nH]nc(-c3cnn(C)c3)c2c1)c1c(CF)ccc2ncccc12 (stereo not drawn) [Example 130, 6-(fluoromethyl)-5-(1-((3-(1-methyl-1H-pyrazol-4-yl)-1H-indazol-5-yl)oxy)ethyl)q uinoline] | – | –
3.4 nM | CC(Oc1ccc2[nH]nc(-c3cnn(C)c3)c2c1)c1cc(Cl)cc2nccnc12 (stereo not drawn) [Example 136, 7-chloro-5-(1-((3-(1-methyl-1H-pyrazol-4-yl)-1H-indazol-5-yl)oxy)ethyl)qu inoxaline] | – | 111 X
0.4 nM | Cc1cc2nccnc2c(C(C)Oc2ccc3[nH]nc(-c4cnn(C)c4)c3c2)n1 (stereo not drawn) [Example 183, 7-methyl-5-(1-((3-(1-methyl-1H-pyrazol-4-yl)-1H-indazol-5-yl)oxy)ethyl)pyridino [3,4-b]pyrazine] | – | 139 X
